Experiments:
Assay in all cases: Off-Target Kinase Profiling
Format in all cases: biochemical
Conditions in all cases: 10 μM; ATP near Km
Abl2 = molecular target: T1, Abl2 (Homo sapiens, UniProt P42684)
T1 construct: purchased Millipore (KinaseProfiler service)
Description: (§1) Representative compounds of the invention (Examples 33 and 10) were tested for off-target kinase activity at a concentration of 10 μM by Millipore, Inc. in their KinaseProfiler™ service against all the kinases available in their full kinase panel. Compounds were run in duplicate at a concentration of ATP near the Km for each individual kinase according to Millipore's specifications. The results are shown in Table B. Data are reported as percent of control (POC) and are the average of the two replicates.

Rsk3 = molecular target: T2, Rsk3 (Homo sapiens, UniProt Q15349)
T2 construct: purchased Millipore, Inc. (KinaseProfiler service)
Description: as §1

ROCK-I = molecular target: T3, ROCK-I (Homo sapiens, UniProt Q13464)
T3 construct: purchased Millipore, Inc. (KinaseProfiler service)
Description: as §1

PAK6 = molecular target: T4, PAK6 (Homo sapiens, UniProt Q9NQU5)
T4 construct: purchased Millipore, Inc. (KinaseProfiler service)
Description: as §1

CK1gamma2 = molecular target: T5, CK1gamma2 (Homo sapiens, UniProt P78368)
T5 construct: purchased Millipore, Inc. (KinaseProfiler service)
Description: as §1

MINK = molecular target: T6, MINK (Homo sapiens, UniProt Q8N4C8)
T6 construct: purchased Millipore, Inc. (KinaseProfiler service)
Description: as §1

LIMK1 = molecular target: T7, LIMK1 (Homo sapiens, UniProt P53667)
T7 construct: purchased Millipore, Inc. (KinaseProfiler service)
Description: as §1

SGK2 = molecular target: T8, SGK2 (Homo sapiens, UniProt Q9HBY8)
T8 construct: purchased Millipore, Inc. (KinaseProfiler service)
Description: as §1

EphB3 = molecular target: T9, EphB3 (Homo sapiens, UniProt P54753)
T9 construct: purchased Millipore, Inc. (KinaseProfiler service)
Description: as §1

EphA1 = molecular target: T10, EphA1 (Homo sapiens, UniProt P21709)
T10 construct: purchased Millipore, Inc. (KinaseProfiler service)
Description: as §1

PKCbetaII = molecular target: T11, PKCbetaII (Homo sapiens, UniProt P05771)
T11 construct: purchased Millipore, Inc. (KinaseProfiler service)
Description: as §1

Pim-2 = molecular target: T12, Pim-2 (Homo sapiens, UniProt Q9P1W9)
T12 construct: purchased Millipore, Inc. (KinaseProfiler service)
Description: as §1

MEK1 = molecular target: T13, MEK1 (Homo sapiens, UniProt Q02750)
T13 construct: purchased Millipore, Inc. (KinaseProfiler service)
Description: as §1

mTOR = molecular target: T14, mTOR (Homo sapiens, UniProt P42345)
T14 construct: purchased Millipore, Inc. (KinaseProfiler service)
Description: as §1

ErbB4 = molecular target: T15, ErbB4 (Homo sapiens, UniProt Q15303)
T15 construct: purchased Millipore, Inc. (KinaseProfiler service)
Description: as §1

PKCepsilon = molecular target: T16, PKCepsilon (Homo sapiens, UniProt Q02156)
T16 construct: purchased Millipore, Inc. (KinaseProfiler service)
Description: as §1

MuSK = molecular target: T17, MuSK (Homo sapiens, UniProt O15146)
T17 construct: purchased Millipore, Inc. (KinaseProfiler service)
Description: as §1

PTK5 = molecular target: T18, PTK5 (Homo sapiens, UniProt P42685)
T18 construct: purchased Millipore, Inc. (KinaseProfiler service)
Description: as §1

Tie2 = molecular target: T19, Tie2 (Homo sapiens, UniProt Q02763)
T19 construct: purchased Millipore, Inc. (KinaseProfiler service)
Description: as §1

MAPKAP-K2 = molecular target: T20, MAPKAP-K2 (Homo sapiens, UniProt P49137)
T20 construct: purchased Millipore, Inc. (KinaseProfiler service)
Description: as §1

CSK = molecular target: T21, CSK (Homo sapiens, UniProt P41240)
T21 construct: purchased Millipore, Inc. (KinaseProfiler service)
Description: as §1

DAPK1 = molecular target: T22, DAPK1 (Homo sapiens, UniProt P53355)
T22 construct: purchased Millipore, Inc. (KinaseProfiler service)
Description: as §1

CDK5/p35 = molecular target: T23, CDK5/p35 (Homo sapiens, UniProt Q00535)
T23 construct: purchased Millipore, Inc. (KinaseProfiler service)
Description: as §1

FGFR4 = molecular target: T24, FGFR4 (Homo sapiens, UniProt P22455)
T24 construct: purchased Millipore, Inc. (KinaseProfiler service)
Description: as §1

MARK1 = molecular target: T25, MARK1 (Homo sapiens, UniProt Q9P0L2)
T25 construct: purchased Millipore, Inc. (KinaseProfiler service)
T25 sequence (Q9P0L2 whole entry): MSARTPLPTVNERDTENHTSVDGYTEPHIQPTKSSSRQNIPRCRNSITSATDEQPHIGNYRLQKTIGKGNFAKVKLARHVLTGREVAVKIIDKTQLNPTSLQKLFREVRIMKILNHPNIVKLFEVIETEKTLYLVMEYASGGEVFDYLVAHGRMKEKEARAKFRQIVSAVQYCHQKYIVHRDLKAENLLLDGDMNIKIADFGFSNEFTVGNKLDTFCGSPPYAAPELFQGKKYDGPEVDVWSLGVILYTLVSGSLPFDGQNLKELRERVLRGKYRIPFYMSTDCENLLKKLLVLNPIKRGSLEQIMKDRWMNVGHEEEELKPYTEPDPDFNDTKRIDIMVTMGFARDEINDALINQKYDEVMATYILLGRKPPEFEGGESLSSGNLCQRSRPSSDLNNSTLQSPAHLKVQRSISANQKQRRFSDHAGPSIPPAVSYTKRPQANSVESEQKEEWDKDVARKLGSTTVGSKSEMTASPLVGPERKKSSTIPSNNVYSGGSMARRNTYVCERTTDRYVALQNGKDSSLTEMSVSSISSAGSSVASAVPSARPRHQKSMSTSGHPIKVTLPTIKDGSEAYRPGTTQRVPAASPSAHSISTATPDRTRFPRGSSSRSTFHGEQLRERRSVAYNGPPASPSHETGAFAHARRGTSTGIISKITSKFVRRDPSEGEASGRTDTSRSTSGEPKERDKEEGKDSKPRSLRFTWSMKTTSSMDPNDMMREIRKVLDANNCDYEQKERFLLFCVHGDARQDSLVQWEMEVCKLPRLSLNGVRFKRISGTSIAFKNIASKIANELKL
Description: as §1

Fer = molecular target: T26, Fer (Homo sapiens, UniProt P16591)
T26 construct: purchased Millipore, Inc. (KinaseProfiler service)
T26 sequence (P16591 whole entry): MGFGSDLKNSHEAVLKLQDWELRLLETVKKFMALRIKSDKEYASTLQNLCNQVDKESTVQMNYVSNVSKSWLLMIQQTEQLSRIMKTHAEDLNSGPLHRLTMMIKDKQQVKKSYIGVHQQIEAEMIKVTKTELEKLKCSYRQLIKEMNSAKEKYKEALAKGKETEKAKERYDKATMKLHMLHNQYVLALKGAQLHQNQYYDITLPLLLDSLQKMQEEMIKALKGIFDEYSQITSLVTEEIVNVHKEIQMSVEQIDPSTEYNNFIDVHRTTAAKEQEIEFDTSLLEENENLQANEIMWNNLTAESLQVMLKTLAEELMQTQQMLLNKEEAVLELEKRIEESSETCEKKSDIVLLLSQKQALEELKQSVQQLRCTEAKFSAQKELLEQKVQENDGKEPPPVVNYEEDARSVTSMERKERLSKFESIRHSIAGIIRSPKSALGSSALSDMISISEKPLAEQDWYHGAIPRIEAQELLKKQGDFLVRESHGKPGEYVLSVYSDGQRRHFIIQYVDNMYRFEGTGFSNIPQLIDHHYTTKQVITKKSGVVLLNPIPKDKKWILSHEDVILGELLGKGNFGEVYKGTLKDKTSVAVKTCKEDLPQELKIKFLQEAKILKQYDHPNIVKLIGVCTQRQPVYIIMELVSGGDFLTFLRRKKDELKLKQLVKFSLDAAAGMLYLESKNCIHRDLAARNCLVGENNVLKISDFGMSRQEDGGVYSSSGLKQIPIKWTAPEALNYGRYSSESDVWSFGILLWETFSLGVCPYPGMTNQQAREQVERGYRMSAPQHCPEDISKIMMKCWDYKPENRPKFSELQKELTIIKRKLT
Description: as §1

EGFR = molecular target: T27, EGFR (Homo sapiens, UniProt P00533)
T27 construct: purchased Millipore, Inc. (KinaseProfiler service)
T27 sequence (P00533 25-1210): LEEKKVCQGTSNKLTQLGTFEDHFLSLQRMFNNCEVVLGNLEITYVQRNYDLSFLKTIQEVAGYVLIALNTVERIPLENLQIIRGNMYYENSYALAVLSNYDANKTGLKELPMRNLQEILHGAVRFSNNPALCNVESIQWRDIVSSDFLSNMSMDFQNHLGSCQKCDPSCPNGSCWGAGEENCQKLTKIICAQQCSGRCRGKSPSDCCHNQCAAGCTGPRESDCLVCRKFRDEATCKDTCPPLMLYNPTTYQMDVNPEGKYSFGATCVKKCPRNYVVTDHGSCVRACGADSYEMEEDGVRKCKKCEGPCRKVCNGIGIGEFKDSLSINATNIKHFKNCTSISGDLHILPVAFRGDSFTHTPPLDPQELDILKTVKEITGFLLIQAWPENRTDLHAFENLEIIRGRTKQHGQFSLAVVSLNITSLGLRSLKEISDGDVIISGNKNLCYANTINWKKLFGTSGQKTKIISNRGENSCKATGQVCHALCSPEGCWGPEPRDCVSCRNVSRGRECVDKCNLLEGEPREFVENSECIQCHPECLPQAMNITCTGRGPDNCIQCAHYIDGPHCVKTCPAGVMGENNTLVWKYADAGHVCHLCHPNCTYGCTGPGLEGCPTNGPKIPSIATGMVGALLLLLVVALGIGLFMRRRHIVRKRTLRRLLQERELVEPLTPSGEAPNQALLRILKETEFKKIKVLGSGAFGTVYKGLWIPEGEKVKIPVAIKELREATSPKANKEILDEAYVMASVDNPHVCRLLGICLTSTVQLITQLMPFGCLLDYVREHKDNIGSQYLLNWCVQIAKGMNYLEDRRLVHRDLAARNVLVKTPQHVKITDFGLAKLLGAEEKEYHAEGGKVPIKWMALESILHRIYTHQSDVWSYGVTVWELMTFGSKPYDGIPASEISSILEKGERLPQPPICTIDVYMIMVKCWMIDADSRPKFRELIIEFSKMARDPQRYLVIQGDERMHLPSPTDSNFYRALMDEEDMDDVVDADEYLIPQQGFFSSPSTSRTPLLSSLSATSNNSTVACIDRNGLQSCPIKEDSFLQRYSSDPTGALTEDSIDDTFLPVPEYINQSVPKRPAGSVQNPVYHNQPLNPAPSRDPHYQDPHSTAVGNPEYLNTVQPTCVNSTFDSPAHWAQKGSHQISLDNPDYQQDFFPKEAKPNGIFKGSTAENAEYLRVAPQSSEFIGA
Description: as §1

NEK2 = molecular target: T28, NEK2 (Homo sapiens, UniProt P51955)
T28 construct: purchased Millipore, Inc. (KinaseProfiler service)
Description: as §1

IRAK4 = molecular target: T29, IRAK4 (Homo sapiens, UniProt Q9NWZ3)
T29 construct: purchased Millipore, Inc. (KinaseProfiler service)
Description: as §1

IGF-1R Activated = molecular target: T30, IGF-1R Activated (Homo sapiens, UniProt P08069)
T30 construct: purchased Millipore, Inc. (KinaseProfiler service)
Description: as §1

ALK4 = molecular target: T31, ALK4 (Homo sapiens, UniProt P36896)
T31 construct: purchased Millipore (KinaseProfiler service)
Description: as §1

PKD2 = molecular target: T32, PKD2 (Homo sapiens, UniProt Q9BZL6)
T32 construct: purchased Millipore, Inc. (KinaseProfiler service)
T32 sequence (Q9BZL6 whole entry): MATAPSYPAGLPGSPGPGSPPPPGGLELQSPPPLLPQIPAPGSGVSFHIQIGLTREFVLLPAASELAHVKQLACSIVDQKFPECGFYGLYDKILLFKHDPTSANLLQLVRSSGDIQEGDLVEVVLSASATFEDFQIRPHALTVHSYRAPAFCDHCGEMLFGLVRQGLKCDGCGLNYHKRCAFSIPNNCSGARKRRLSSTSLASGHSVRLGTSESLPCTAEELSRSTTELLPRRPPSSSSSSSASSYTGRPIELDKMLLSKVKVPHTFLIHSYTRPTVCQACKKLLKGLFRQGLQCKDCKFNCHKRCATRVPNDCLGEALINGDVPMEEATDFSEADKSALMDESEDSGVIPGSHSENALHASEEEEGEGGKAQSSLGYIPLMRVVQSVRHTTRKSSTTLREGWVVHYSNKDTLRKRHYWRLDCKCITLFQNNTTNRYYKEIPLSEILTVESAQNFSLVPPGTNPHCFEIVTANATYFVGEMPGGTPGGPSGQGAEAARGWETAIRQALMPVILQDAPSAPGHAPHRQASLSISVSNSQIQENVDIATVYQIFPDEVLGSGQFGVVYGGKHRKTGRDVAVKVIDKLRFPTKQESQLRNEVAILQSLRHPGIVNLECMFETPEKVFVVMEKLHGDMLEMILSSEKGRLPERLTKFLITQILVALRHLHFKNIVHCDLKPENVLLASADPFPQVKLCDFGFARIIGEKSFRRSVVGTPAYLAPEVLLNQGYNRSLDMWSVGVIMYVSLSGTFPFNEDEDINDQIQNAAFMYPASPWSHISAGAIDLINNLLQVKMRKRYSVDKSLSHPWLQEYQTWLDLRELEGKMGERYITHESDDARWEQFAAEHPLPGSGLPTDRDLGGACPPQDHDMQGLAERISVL
Description: as §1

DYRK2 = molecular target: T33, DYRK2 (Homo sapiens, UniProt Q92630)
T33 construct: purchased Millipore, Inc. (KinaseProfiler service)
Description: as §1

PAK4 = molecular target: T34, PAK4 (Homo sapiens, UniProt O96013)
T34 construct: purchased Millipore, Inc. (KinaseProfiler service)
Description: as §1

CK1delta = molecular target: T35, CK1delta (Homo sapiens, UniProt P48730)
T35 construct: purchased Millipore, Inc. (KinaseProfiler service)
Description: as §1

eEF-2K = molecular target: T36, eEF-2K (Homo sapiens, UniProt O00418)
T36 construct: purchased Millipore, Inc. (KinaseProfiler service)
Description: as §1

Flt4 = molecular target: T37, Flt4 (Homo sapiens, UniProt P35916)
T37 construct: purchased Millipore, Inc. (KinaseProfiler service)
T37 sequence (P35916 25-1363): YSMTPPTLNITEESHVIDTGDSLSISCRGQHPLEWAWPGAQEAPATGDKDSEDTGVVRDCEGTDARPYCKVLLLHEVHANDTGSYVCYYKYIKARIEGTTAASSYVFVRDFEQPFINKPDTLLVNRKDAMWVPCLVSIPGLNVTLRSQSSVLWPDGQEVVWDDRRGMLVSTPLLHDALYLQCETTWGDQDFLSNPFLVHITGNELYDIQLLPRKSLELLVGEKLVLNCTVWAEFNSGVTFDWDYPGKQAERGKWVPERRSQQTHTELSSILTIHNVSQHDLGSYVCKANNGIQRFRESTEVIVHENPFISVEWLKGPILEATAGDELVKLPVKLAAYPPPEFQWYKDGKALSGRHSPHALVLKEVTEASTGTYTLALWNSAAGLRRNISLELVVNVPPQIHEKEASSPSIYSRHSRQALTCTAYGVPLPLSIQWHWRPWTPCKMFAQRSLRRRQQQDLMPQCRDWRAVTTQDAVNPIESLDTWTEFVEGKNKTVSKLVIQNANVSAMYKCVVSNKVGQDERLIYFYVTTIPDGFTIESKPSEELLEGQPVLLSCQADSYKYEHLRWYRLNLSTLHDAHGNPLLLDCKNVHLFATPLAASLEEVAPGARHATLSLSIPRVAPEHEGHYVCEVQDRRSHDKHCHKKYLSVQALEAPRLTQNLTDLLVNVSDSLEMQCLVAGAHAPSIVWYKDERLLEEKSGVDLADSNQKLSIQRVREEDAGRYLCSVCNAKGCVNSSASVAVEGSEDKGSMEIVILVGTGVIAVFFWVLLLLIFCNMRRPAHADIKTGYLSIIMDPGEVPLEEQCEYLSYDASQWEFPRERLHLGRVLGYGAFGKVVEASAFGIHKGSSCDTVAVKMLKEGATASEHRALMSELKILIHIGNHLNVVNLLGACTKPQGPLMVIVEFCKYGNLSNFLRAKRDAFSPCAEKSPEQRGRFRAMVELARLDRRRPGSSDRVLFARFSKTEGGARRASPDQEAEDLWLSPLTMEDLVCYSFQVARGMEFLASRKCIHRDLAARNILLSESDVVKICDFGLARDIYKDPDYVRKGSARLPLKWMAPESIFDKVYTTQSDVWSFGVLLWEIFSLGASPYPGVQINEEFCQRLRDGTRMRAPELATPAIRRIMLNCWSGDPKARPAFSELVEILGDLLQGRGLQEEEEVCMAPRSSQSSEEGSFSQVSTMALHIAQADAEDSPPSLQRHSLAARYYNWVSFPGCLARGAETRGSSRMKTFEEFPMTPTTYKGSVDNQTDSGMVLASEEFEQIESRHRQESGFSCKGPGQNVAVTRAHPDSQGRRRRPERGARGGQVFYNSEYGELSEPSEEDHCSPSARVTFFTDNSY
Description: as §1

TAO3 = molecular target: T38, TAO3 (Homo sapiens, UniProt Q9H2K8)
T38 construct: purchased Millipore, Inc. (KinaseProfiler service)
Description: as §1

ITK = molecular target: T39, ITK (Homo sapiens, UniProt Q08881)
T39 construct: purchased Millipore, Inc. (KinaseProfiler service)
Description: as §1

Ros = molecular target: T40, Ros (Homo sapiens, UniProt P08922)
T40 construct: purchased Millipore, Inc. (KinaseProfiler service)
Description: as §1

MKK6 = molecular target: T41, MKK6 (Homo sapiens, UniProt P52564)
T41 construct: purchased Millipore, Inc. (KinaseProfiler service)
Description: as §1

Structure (SMILES): COCc1ccc(C2CCC2)c(CNC(=O)Nc2c(C)c(-c3cnc(C)nc3)nn2-c2ccccc2)c1 [Example 10, 1-(2-cyclobutyl-5-(methoxymethyl)benzyl)-3-(4-methyl-3-(2-methylpyrimidin-5-yl)-1-phenyl-1H-pyrazol-5-yl)urea]
- Avg POC Abl2 (Abl2): 95 POC
- Avg POC Rsk3 (Rsk3): 101 POC
- Avg POC ROCK-I (ROCK-I): 114 POC
- Avg POC PAK6 (PAK6): 95.5 POC
- Avg POC CK1gamma2 (CK1gamma2): 69.5 POC
- Avg POC MINK (MINK): 139.5 POC
- Avg POC LIMK1 (LIMK1): 92 POC
- Avg POC SGK2 (SGK2): 80.5 POC
- Avg POC EphB3 (EphB3): 100 POC
- Avg POC EphA1 (EphA1): 98 POC
- Avg POC PKCbetaII (PKCbetaII): 94 POC
- Avg POC Pim-2 (Pim-2): 118 POC
- Avg POC MEK1 (MEK1): 121 POC
- Avg POC mTOR (mTOR): 75 POC
- Avg POC ErbB4 (ErbB4): 108.5 POC
- Avg POC PKCepsilon (PKCepsilon): 83.5 POC
- Avg POC MuSK (MuSK): 95 POC
- Avg POC PTK5 (PTK5): 87.5 POC
- Avg POC Tie2 (Tie2): 81.5 POC
- Avg POC MAPKAP-K2 (MAPKAP-K2): 106 POC
- Avg POC CSK (CSK): 132 POC
- Avg POC DAPK1 (DAPK1): 98 POC
- Avg POC CDK5/p35 (CDK5/p35): 97 POC
- Avg POC FGFR4 (FGFR4): 118 POC
- Avg POC MARK1 (MARK1): 97 POC
- Avg POC Fer (Fer): 96.5 POC
- Avg POC EGFR (EGFR): 107.5 POC
- Avg POC NEK2 (NEK2): 98 POC
- Avg POC IRAK4 (IRAK4): 122.5 POC
- Avg POC IGF-1R Activated (IGF-1R Activated): 93.5 POC
- Avg POC ALK4 (ALK4): 111.5 POC
- Avg POC PKD2 (PKD2): 106 POC
- Avg POC DYRK2 (DYRK2): 92.5 POC
- Avg POC PAK4 (PAK4): 102.5 POC
- Avg POC CK1delta (CK1delta): 85.5 POC
- Avg POC eEF-2K (eEF-2K): 109.5 POC
- Avg POC Flt4 (Flt4): 88 POC
- Avg POC TAO3 (TAO3): 88.5 POC
- Avg POC ITK (ITK): 112 POC
- Avg POC Ros (Ros): 97.5 POC
- Avg POC MKK6 (MKK6): 131.5 POC

Structure (SMILES): COCc1ccc(C(F)(F)F)c(CNC(=O)Nc2c(C)c(-c3cnn(C)c3)nn2-c2ccccc2)c1 [Example 33, 1-(1′,4-dimethyl-1-phenyl-1H,1′H-[3,4′-bipyrazol]-5-yl)-3-(5-(methoxymethyl)-2-(trifluoromethyl)benzyl)urea]
- Avg POC Abl2 (Abl2): 139.5 POC
- Avg POC Rsk3 (Rsk3): 103 POC
- Avg POC ROCK-I (ROCK-I): 120.5 POC
- Avg POC PAK6 (PAK6): 147.5 POC
- Avg POC CK1gamma2 (CK1gamma2): 113.5 POC
- Avg POC MINK (MINK): 100 POC
- Avg POC LIMK1 (LIMK1): 91.5 POC
- Avg POC SGK2 (SGK2): 208 POC
- Avg POC EphB3 (EphB3): 69 POC
- Avg POC EphA1 (EphA1): 90 POC
- Avg POC PKCbetaII (PKCbetaII): 96 POC
- Avg POC Pim-2 (Pim-2): 146 POC
- Avg POC MEK1 (MEK1): 117 POC
- Avg POC mTOR (mTOR): 99 POC
- Avg POC ErbB4 (ErbB4): 130.5 POC
- Avg POC PKCepsilon (PKCepsilon): 92 POC
- Avg POC MuSK (MuSK): 94.5 POC
- Avg POC PTK5 (PTK5): 92.5 POC
- Avg POC Tie2 (Tie2): 137.5 POC
- Avg POC MAPKAP-K2 (MAPKAP-K2): 146 POC
- Avg POC CSK (CSK): 127.5 POC
- Avg POC DAPK1 (DAPK1): 141.5 POC
- Avg POC CDK5/p35 (CDK5/p35): 108.5 POC
- Avg POC FGFR4 (FGFR4): 201.5 POC
- Avg POC MARK1 (MARK1): 109.5 POC
- Avg POC Fer (Fer): 90.5 POC
- Avg POC EGFR (EGFR): 116.5 POC
- Avg POC NEK2 (NEK2): 96 POC
- Avg POC IRAK4 (IRAK4): 109.5 POC
- Avg POC IGF-1R Activated (IGF-1R Activated): 86.5 POC
- Avg POC ALK4 (ALK4): 106 POC
- Avg POC PKD2 (PKD2): 106 POC
- Avg POC DYRK2 (DYRK2): 91.5 POC
- Avg POC PAK4 (PAK4): 108.5 POC
- Avg POC CK1delta (CK1delta): 127.5 POC
- Avg POC eEF-2K (eEF-2K): 169.5 POC
- Avg POC Flt4 (Flt4): 94 POC
- Avg POC TAO3 (TAO3): 89.5 POC
- Avg POC ITK (ITK): 124 POC
- Avg POC Ros (Ros): 100.5 POC
- Avg POC MKK6 (MKK6): 143 POC
